Measured values reported in US20250152750A1 (Cancer Research Technology Limited, priority 2022, published 2025).
“Also recorded” adds a separate entry of the source.

How the values were obtained:
[1] = system: uptake of cyanine dye nanoparticles in control and senescent cells; assay: Endocytosis analysis by confocal microscopy with endocytosis pathway inhibitors; assay type: cell-based; details: inhibitor 1 h before nanoparticles, 12-16 h
Method: Cells were trypsinized and seeded in flat-bottom μ-clear 96-well plates (Greiner Bio-One, #655087) at a density of 3,500-5,000 control and 4,000-6,000 senescent cells/well. Once the cells were attached, culture medium was changed to DMEM without FBS and exposed to a number of different inhibitors for 1 h. […] The cells were washed 3x with PBS for 5 min. Specific organelle stain LysoTracker Green DND-26 (Cell Signaling Technology, FM8783) was used according to the manufacturers protocol. For nuclei staining, Hoechst at 0.1 μg/mL in PBS was added 10 min prior to analysis.

SK-MEL-103 xenografts = assay: Ex vivo IVIS fluorescence imaging of untreated and Palbociclib treated xenografts; assay type: in vivo, mice; details: 200 μL of 1 mg/mL tail vein, 6 h, p=0.0438
Method: All mice were treated in strict accordance with the local ethical committee (University of Cambridge License Review Committee) and the UK Home Office guidelines. Tumour xenografts were established using SK-MEL-103. Cells were trypsinised, counted with a haemocytometer, and injected subcutaneously (10^6 cells in a volume of 100 μL per dorsolateral flank) in 8- to 10-week-old athymic nude female mice (Crl:NU(NCr)-Foxn1^nu) purchased from Charles River Laboratories. Tumour volume was measured every 2 days with a caliper and calculated as V=(a×b 2)/2 where a is the longer and b is the shorter of two perpendicular diameters. […]
An IVIS Spectrum Imaging System (Perkin Elmer Inc) was used for ex vivo fluorescence imaging. For ex vivo imaging, mice were sacrificed by cervical dislocation and organs and tumour xenografts were analysed immediately after harvesting. ICG was detected using an excitation wavelength of 710-740 nm and emission bandpass from 810-830 nm. […] Fluorescence imaging quantification was performed by Living Image 3.2 software (Perkin Elmer Inc). […] Fluorescence activity is measured in photons per second per square centimetre per steradian (p/s/cm^2/sr). […]
See Examples—part A. Fluorescence activity is measured as average Radiant Efficiency with the equation of [p/s/cm2/sr]/[μW/cm2].

[2] = system: senescent cells (multiple models of senescence); assay: Flow cytometry accumulation in control and senescent cells; assay type: cell-based, human; details: 12-16 hours exposure
Method: LSR Fortessa (BD-Becton Dickinson) was used for flow cytometry analysis. For cyanine dye nanoparticle and small molecule studies, 6 well plates were used and seeded 200,000 cells per well. […] After this, cells were trypsinised and re-suspended in PBS buffer with 2% FBS. At least 10,000 live events were collected for each condition. DAPI (Sigma) was added to exclude dead cells. The analysis of all flow cytometry data was performed using FlowJo v10 (Treestar, OR). Unstained control and senescent cells were used as reference for each independent experiment. For ICG the 640 nm laser was used with an emission window of 750-810 nm. For the cyanine dye nanoparticle, the 640 nm laser was used with an emission window of 708-753 nm.

## CN1CCN(CCCN2c3ccccc3Sc3ccc(Cl)cc32)CC1 [prochloroperazine]
[1]
  effect of inhibitor on uptake of cyanine dye nanoparticles: not inhibited

## O=C(N/N=C/c1cc(O)c(O)cc1O)c1cc2ccccc2cc1O [dynago4a]
[1]
  effect of inhibitor on uptake of cyanine dye nanoparticles: significantly inhibited
[1]; listed as dyngo4a
  effect of inhibitor on uptake of cyanine dye nanoparticles: significant inhibition

## CC1(C)C(/C=C/C=C/C=C/C=C2\N(CCCCS(=O)(=O)O)c3ccc4ccccc4c3C2(C)C)=[N+](CCCCS(=O)(=O)[O-])c2ccc3ccccc3c21 [ICG, indocyanine green]
SK-MEL-103 xenografts
  ICG emission in untreated (control) vs Palbociclib treated tumours: accumulation in untreated tumours as opposed to senescent tumours; also recorded: significantly higher signal in the control tumours
[2]
  accumulation in senescent cells compared to controls: accumulation of ICG

## CCN(CC)CCCC(C)Nc1ccnc2cc(Cl)ccc12 (centres unmarked) [chloroquine]
[1]
  effect of inhibitor on uptake of cyanine dye nanoparticles: significantly enhances
[1]; listed as Chloroquine
  effect of inhibitor on uptake of cyanine dye nanoparticles: more dramatic increase

## O=C1NC(=NS(=O)(=O)c2cccc3ccccc23)S/C1=C\c1ccc(Br)cc1 [Pitstop 2]
[1]
  effect of inhibitor on uptake of cyanine dye nanoparticles: significant inhibition; also recorded: significant inhibitor of endocytosis
